According to patent US20170121683A1, “ARYL HYDROCARBON RECEPTOR DISRUPTION AND ENHANCEMENT” (priority 2015, published 2017):

Experiments:
hESCs = assay: Viability of hESC-derived cells, Sytox Blue Live/Dead Stain; assay type: cell-based, human; conditions: 1 μM SR-1 or 10 nM TCDD
Experimental: FIG. 8A. Non-adherent hematopoietic progenitor cells derived from hESCs were harvested at Day 6+3, Day 6+5, Day 6+7, and Day 6+9 time points and probed for gene expression by quantitative real-time PCR (qPCR). For each gene, Ct values were normalized to GAPDH at each time point and data is presented as relative fold-change as compared to undifferentiated hESCs. […] FIG. 8B Undifferentiated hESCs were cultured in the presence of 1 μM SR-1, 10 nM TCDD, or DMSO vehicle control for 96 hours and probed for gene expression by qPCR. For each gene, Ct values were normalized to GAPDH at each time point and data is presented as relative fold-change as compared to DMSO treated hESCs. n=3, error bars represent SEM, *p<0.05 assessed by two-way ANOVA+Tukey-Kramer multiple comparisons post-hoc test. FIG. 8C. Both adherent and non-adherent cell fractions treated with either DMSO, SR-1, or TCDD were harvested at Day 6+3, Day 6+6, and Day 6+9 and probed for viability with Sytox Blue Live/Dead Stain. […]
Harvested cells were incubated with PE-Cy7 CD34 (BD Biosciences, San Jose, Calif.) in conjunction with APC CD31, APC CD41a, APC CD43, or APC CD45 for 30 minutes at 4° C. in FACS buffer (DPBS containing 2% fetal bovine serum and 0.1% sodium azide). […] Cells were analyzed using an LSRII flow cytometer (BD Biosciences) and data were analyzed using FlowJo software (TreeStart, Ashland, Oreg.).

[1] = system: hESC-derived hematopoietic cells; assay: cNK, NKP and ILC3 phenotyping by flow cytometry; assay type: cell-based, human
Text: FIG. 15A. Gating scheme for identifying cNK (CD94^−CD117^+), NK progenitor cells (NKP, CD94^+CD117^− and CD94^+CD117^−LFA1^+), and ILC (CD94^−CD117^+LFA1^−) phenotypes. FIG. 15B. Representative flow cytometry profile of non-adherent hematopoietic cells differentiated from hESCs in the presence of DMSO, SR-1, or TCDD at Day 11+28. FIG. 15C. cNK, NKP, and NKP/ILC subpopulations from Day 11+28 DMSO, SR-1, and TCDD differentiated hESCs assessed for CD56 and LFA (CD11a/CD18) surface antigen expression. Representative flow cytometry plots are shown, n=3. FIG. 15D. Total percentage of cNK, NKP, and NKP/ILCs present in the non-adherent fraction of differentiating hESCs in the presence of DMSO, SR-1, or TCDD at Day 11+28. n=3, error bars represent SEM, *p<0.05, **p<0.01, ***p<0.001 as compared to DMSO treated controls and assessed by two-way ANOVA+Tukey-Kramer multiple comparisons post-hoc test. FIG. 15E. CD94^−CD117^+ subpopulations were further quantified for expression of LFA^+ (NKP) and LFA^− (ILC) by flow cytometry. n=3, error bars represent SEM, *p<0.05, **p<0.01 as compared to DMSO treated controls and assessed by two-way ANOVA+Tukey-Kramer multiple comparisons post-hoc test.
Spin-EBs were generated as described above (see also Knorr et al. Stem Cells Dev. 2013; 22(13):1861-9; Ni et al. Embryonic Stem Cell Immunobiol. Methods Protoc. Methods Mol. Biol. 2013; 1029:33-41; Hermanson et al. Stem Cells. 2016; 34(1):93-101). Following 11 days of mesoderm conditioning (Day 11), spin-EBs were collected and analyzed by flow cytometry to assess hematopoietic progenitor cell potential (see flow cytometry methods for antibodies used) (FIG. 4A). Spin-EBs yielding >30% CD34^+CD45^+ cells were transferred onto 24-well plates coated with irradiated OP9-DL1 cells (as described in Martin et al. Blood. 2008; 112(7):2730-7; La Motte-Mohs et al. Blood. 2005; 105(4):1431-9) (now defined as Day 11+0). EBs and OP9-DL1 were co-cultured in NK differentiation media (NKDM) supplemented initially with SCF, IL-15, IL-7, Flt3-L (all R&D Systems), and IL-3 (PeproTech) for one week; DMSO, SR-1, or TCDD were also added at Day 11+0. Every week, a one-half media change with NKDM supplemented with SCF, IL-15, IL-7, Flt3-L, and drugs was performed. hESCs were differentiated for four additional weeks (Day 11+28) and non-adherent cells were harvested for analysis.
The following additional antibodies were used (all anti-human): LFA-1 (CD11a/CD18)-APC-R700 (BD Biosciences), CD31-APC (eBioscience), CD33-APC (BD Biosciences), CD34-PECy7 (BD Biosciences), CD34-APC (BD Biosciences), CD41a-APC (BD Biosciences), CD43-APC (BD Biosciences), CD45-APC (BD Biosciences), CD56-PECy7 (BD Biosciences), CD56-BV421 (BD Biosciences), CD94-PerCP-Cy5.5 (BD Biosciences), CD117-PECy7 (BD Biosciences), CD117-APC (eBiosciences), CD144-APC (eBioscience). Samples were analyzed on either an LSRFortessa or LSRII flow cytometer (BD Biosciences). Gating was set relative to isotype controls of identical fluorophores. Data from flow cytometry was analyzed using FlowJo software (Treestar, Ashland, Oreg.).
To assess the effects of AHR modification on NK cell and ILC specification, non-adherent hematopoietic cells derived from hESCs on Day 11+28 cultured in NKDM supplemented with DMSO, SR-1, or TCDD were harvested as single-cell suspensions. Cells were washed with DPBS, filtered, and stained with the following antibodies (all anti-human): CD56-BV421, CD94-PerCP-Cy5.5, CD117-PECy7, and LFA-1 (CD11a/CD18)-APC-R700 in sterile FACS Buffer (DPBS+2% FBS and 0.1% sodium azide) for 30 minutes at 4° C. Cells were washed with FACS buffer and cells were counterstained with Sytox Blue (ThermoFisher Scientific) immediately prior to sorting. Live NKP, cNK, and ILC3 populations were sorted directly into FACS tubes containing NKDM basal media using a FACSAria II (BD Biosciences) cell sorter. Cells were immediately centrifuged, washed once with PBS, and processed from total RNA isolation as described above.

[2] = Day 11+28, non-adherent fraction, n=3

| Compound | cytotoxic effects on hESCs (hESCs) | change in CD94−CD117+ population compared to DMSO ([1]; Day 11+28) | NKP (CD94+CD117+) cells, total percentage [1, 2] [%] | cNK cells (CD94+CD117−), total percentage [1, 2] [%] | shift of NKP population compared to DMSO ([1]; Day 11+28) | percentage of CD94−CD117+ cells absent for LFA1 (ILC3) ([1]; Day 11+28, n=3) [%] | CD94−CD117+ cells, total percentage [1, 2] [%] |
| --- | --- | --- | --- | --- | --- | --- | --- |
| CC(C)n1cnc2c(NCCc3ccc(O)cc3)nc(-c3csc4ccccc34)nc21 [SR-1, StemReginin-1] | no significant cytotoxic effects | significant reduction | 16.13±0.58 | 37.0±2.92 | – | – | – |
| Clc1cc2c(cc1Cl)Oc1cc(Cl)c(Cl)cc1O2 [TCDD, 2,3,7,8-tetrachlorodibenzo-p-dioxin] | no significant cytotoxic effects | – | – | – | significantly shifted hESC-derived hematopoietic cells away from NKPs | 69.4±4.57 | 28.5±4.42 |
